Values quoted from earlier work as cited in US6896899B2, “Pharmaceutical preparations of glutathione and methods of administration thereof” (Antioxidant Pharmaceuticals Corp., priority 1996, dated 2005).

Columns and labels:
HIV = details: acutely infected cells, chronically infected cells, normal peripheral blood mononuclear cells
[1] = human, in vivo, iv
[2] = human, in vivo, po, 15 mg/kg
Mouse = details: GSH pretreatment
blood pressure = details: 3,699 mg dose, normal subjects
hematologic parameters = details: 1,200 mg/day intravenously

SMILES	cytokine-stimulated HIV expression and replication (HIV)	volume of distribution of exogenous glutathione [1]	plasma glutathione levels over the basal concentration [2]	protection against morphine-induced lethality (Mouse)	tumor growth and survival (hepatocellular carcinoma; 5 g oral GSH per day)	side-effects (hepatocellular carcinoma; human, in vivo, po)	blood pressure (blood pressure)	hematologic parameters (hematocrit, hemoglobin, blood count) compared to baseline (hematologic parameters)
CC(=O)N[C@@H](CS)C(=O)O [NAC, N-acetyl cysteine]	can inhibit	–	–	–	–	–	–	–
N[C@@H](CCC(=O)N[C@@H](CS)C(=O)NCC(=O)O)C(=O)O [GSH, gamma-glutamyl-cysteinyl-glycine]	can inhibit	176-107 Ml/Kg	1.5-10 fold	protects against morphine-induced lethality	Two of the female patients survived 1 year and exhibited regression or stagnation of their tumor growth	Two patients withdrew shortly after receiving GSH due to intolerable side-effects	significant decrease	significantly increase
